Results taken from US20080026065A1, “Powdered Compositions Of Sensitive Active Materials In An At Least Partially Amorphous State” (priority 2004, published 2008).

Experiment: Moisture uptake at 75% relative humidity, gravimetric
Type: physicochemical
Conditions: freeze dried matrices, 75% RH atmosphere, 8 hours; for moisture uptake (percentage weight increase): FIG. 1
Experimental: Following lyophilisation the resultant freeze dried matrices were exposed to a 75% RH (Relative Humidity) atmosphere for a period of 8 hours. At intervals over this period, moisture uptake of each sample was measured gravimetrically and calculated as a percentage weight increase of the sample.

| Structure (SMILES) | moisture uptake (percentage weight increase) | physical quality of sample after moisture exposure |
| --- | --- | --- |
| OC[C@@H](O)[C@@H](O)[C@H](O)[C@H](O)CO [mannitol] | no appreciable moisture uptake |  |
| OC[C@H]1O[C@H](O[C@H]2O[C@H](CO)[C@@H](O)[C@H](O)[C@H]2O)[C@H](O)[C@@H](O)[C@@H]1O [trehalose] | significant moisture uptake | deterioration in the physical quality |
